# Test system: parasites (ring stage, in human red blood cell culture)
# Test: Parasite LDH growth assay (antiparasite potency, Parasite Assay)
# Format: cell-based, Plasmodium falciparum
# Details: 0.7% rings, 2% haematocrit, 72 hours at 37° C., LDH readout of parasite growth
# Outline: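 Ring-stage parasites at 0.7% parasitemia and 2% haematocrit, in RPMI-Hepes/bicarbonate with 5% heat-inactivated human serum and 0.5% albumax, were added to compound-containing medium. Cultures grew 72 h at 37 °C in gassed humidified boxes. Plates were then frozen overnight at −80 °C, thawed 4 h, and growth was measured by LDH assay.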
row,Compound,EC50
1,"(4R)-4-(4,4-diethyl-2-imino-6- oxo-hexahydropyrimidin-1- yl)-N-[2-(hydroxymethyl)- methyl-3H-benzofuran-3- yl]chromane-6-carboxamide [Example 176B]",7.8 nM

# Same assay, conditions: Plasmodium falciparum, Erythrocyte, 72 h, 0.7% rings, 2% haematocrit, 72 hours at 37° C., LDH readout of parasite growth
row,Compound,EC50
1,"CCC1(CC)CC(=O)N(C2CC(C(=O)N(C)C)Oc3ccc(C(=O)N[C@@H]4c5ccccc5C[C@@]4(C)O)cc32)C(=N)N1 (stereo partly drawn) [Example 292, 4-(4,4-diethyl-2-imino-6-oxo-hexahydropyrimidin-1-yl)-N6-[(1R,2R)-2-hydroxy-2-methyl-indan-1-yl]-N2,N2-dimethyl-chromane-2,6-dicarboxamide]",49.7 nM
2,"CC1(C)CC(=O)N([C@@H]2CCS(=O)(=O)c3ccc(C(=O)N[C@H]4C[C@H](C(F)(F)F)Oc5ccccc54)cc32)C(=N)N1 [Example 293, (4R)-4-(2-imino-4,4-dimethyl-6-oxo-hexahydropyrimidin-1-yl)-1,1-dioxo-N-[(2R,4S)-2-(trifluoromethyl)chroman-4-yl]-3,4-dihydro-2H-thiochromene-6-carboxamide]",2.8 nM
3,"CC1(C)CC(=O)N([C@H]2CCS(=O)(=O)c3ccc(C(=O)N[C@H]4C[C@H](C(F)(F)F)Oc5ccccc54)cc32)C(=N)N1 [Example 294, (4S)-4-(2-imino-4,4-dimethyl-6-oxo-hexahydropyrimidin-1-yl)-1,1-dioxo-N-[(2R,4S)-2-(trifluoromethyl)chroman-4-yl]-3,4-dihydro-2H-thiochromene-6-carboxamide]",259 nM
4,"CCC1(CC)CC(=O)N([C@@H]2c3cc(C(=O)N[C@@H]4c5ccccc5OC(C)(C)[C@H]4O)ccc3OC[C@@]2(C)OC)C(=N)N1 [Example 295, (3S,4R)-4-(4,4-diethyl-2-imino-6-oxo-hexahydropyrimidin-1-yl)-N-[(3S,4R)-3-hydroxy-2,2-dimethyl-chroman-4-yl]-3-methoxy-3-methyl-chromane-6-carboxamide]",100 nM
5,"CCC1(CC)CC(=O)N([C@H]2c3cc(C(=O)N[C@@H]4c5ccccc5OC(C)(C)[C@H]4O)ccc3OC[C@]2(C)OC)C(=N)N1 [Example 296, (3R,4S)-4-(4,4-diethyl-2-imino-6-oxo-hexahydropyrimidin-1-yl)-N-[(3S,4R)-3-hydroxy-2,2-dimethyl-chroman-4-yl]-3-methoxy-3-methyl-chromane-6-carboxamide]",0.3 nM
6,"CCC1(CC)CC(=O)N(C2c3cc(C(=O)N[C@@H]4c5ccccc5C[C@@]4(C)O)ccc3OC2(COC)COC)C(=N)N1 (stereo partly drawn) [Example 297, 3-(4,4-diethyl-2-imino-6-oxo-hexahydropyrimidin-1-yl)-N-[(1R,2R)-2-hydroxy-2-methyl-indan-1-yl]-2,2-bis(methoxymethyl)-3H-benzofuran-5-carboxamide]",241 nM
7,"CCC1(CC)CC(=O)N([C@H]2c3cc(C(=O)N[C@@H]4c5ccccc5OC(C)(C)[C@H]4O)ccc3OC[C@H]2COC)C(=N)N1 [Example 298, (3R,4R)-4-(4,4-diethyl-2-imino-6-oxotetrahydropyrimidin-1(2H)-yl)-N-((3S,4R)-3-hydroxy-2,2-dimethylchroman-4-yl)-3-(methoxymethyl)chromane-6-carboxamide]",0.5 nM
8,"CCC1(CC)CC(=O)N([C@H]2c3cc(C(=O)N[C@@H]4c5ccccc5OC(C)(C)[C@H]4O)ccc3OC[C@@H]2COC)C(=N)N1 [Example 299, (3S,4R)-4-(4,4-diethyl-2-imino-6-oxo-hexahydropyrimidin-l-yl)-N-[(3S,4R)-3-hydroxy-2,2-dimethyl-chroman-4-yl]-3-(methoxymethyl)chromane-6-carboxamide]",0.8 nM
9,"CC[C@]1(C)CC(=O)N([C@@H]2C[C@@H](COC(F)F)Oc3ccc(C(=O)N[C@@H]4c5ccccc5OC[C@@]4(C)O)cc32)C(=N)N1 [Example 300, (2S,4R)-2-(difluoromethoxymethyl)-4-[(4R)-4-ethyl-2-imino-4-methyl-6-oxo-hexahydropyrimidin-1-yl]-N-[(3S,4R)-3-hydroxy-3-methyl-chroman-4-yl]chromane-6-carboxamide]",3.8 nM
10,"CCC1(CC)CC(=O)N([C@H]2c3cc(C(=O)N[C@@H]4c5cc(C#N)ccc5OC[C@@]4(C)O)ccc3OC[C@H]2COC)C(=N)N1 [Example 301, (3R,4R)-N-[(3S,4R)-6-cyano-3-hydroxy-3-methyl-chroman-4-yl]-4-(4,4-diethyl-2-imino-6-oxo-hexahydropyrimidin-1-yl)-3-(methoxymethyl)chromane-6-carboxamide]",1.8 nM
11,"CCC1(CC)CC(=O)N(C2CC(C(=O)N(C)C)Oc3ccc(C(=O)N[C@H]4CC(C)(C)Oc5ccccc54)cc32)C(=N)N1 (stereo partly drawn) [Example 302, 4-(4,4-diethyl-2-imino-6-oxo-hexahydropyrimidin-1-yl)-N6-[(4S)-2,2-dimethylchroman-4-yl]-N2,N2-dimethyl-chromane-2,6-dicarboxamide]",1.7 nM
12,"CCC1(CC)CC(=O)N(C2CC(C(=O)N(C)C)Oc3ccc(C(=O)N[C@@H]4c5ccccc5OC[C@@]4(C)O)cc32)C(=N)N1 (stereo partly drawn) [Example 303, 4-(4,4-diethyl-2-imino-6-oxo-hexahydropyrimidin-1-yl)-N6-[(3S,4R)-3-hydroxy-3-methyl-chroman-4-yl]-N2,N2-dimethyl-chromane-2,6-dicarboxamide]",50.8 nM
13,"CCC1(CC)CC(=O)N([C@H]2c3cc(C(=O)N[C@H]4CC(C)(C)Oc5ccccc54)ccc3OC2(COC)COC)C(=N)N1 [Example 304, (3S)-3-(4,4-diethyl-2-imino-6-oxo-hexahydropyrimidin-1-yl)-N-[(4S)-2,2-dimethylchroman-4-yl]-2,2-bis(methoxymethyl)-3H-benzofuran-5-carboxamide]",5.6 nM
14,"CCC1(CC)CC(=O)N(C2c3cc(C(=O)N[C@@H]4c5ccccc5OC[C@@]4(C)O)ccc3OC2(COC)COC)C(=N)N1 (stereo partly drawn) [Example 305, 3-(4,4-diethyl-2-imino-6-oxo-hexahydropyrimidin-l-yl)-N-[(3S,4R)-3-hydroxy-3-methyl-chroman-4-yl]-2,2-bis(methoxymethyl)-3H-benzofuran-5-carboxamide]",75.8 nM
15,"CCC1(CC)CC(=O)N(C2CC(C(=O)N(C)C)Oc3ccc(C(=O)N[C@@H]4c5ccccc5OC(C)(C)[C@H]4O)cc32)C(=N)N1 (stereo partly drawn) [Example 306, 4-(4,4-diethyl-2-imino-6-oxo-hexahydropyrimidin-1-yl)-N6-[(3S,4R)-3-hydroxy-2,2-dimethyl-chroman-4-yl]-N2,N2-dimethyl-chromane-2,6-dicarboxamide]",27.4 nM
16,CCC1(CC)CC(=O)N([C@H]2c3cc(C(=O)N[C@@H]4c5ccccc5OC(C)(C)[C@H]4O)ccc3OC2(COC)COC)C(=N)N1 [Example 307],3.2 nM
17,"CCC1(CC)CC(=O)N([C@@H]2C[C@@H](CCCCCCN)Oc3ccc(C(=O)N[C@H]4CC(C)(C)Oc5ccccc54)cc32)C(=N)N1 [Example 308, (2R,4R)-2-(6-aminohexyl)-4-(4,4-diethyl-2-imino-6-oxo-hexahydropyrimidin-1-yl)-N-[(4S)-2,2-dimethylchroman-4-yl]chromane-6-carboxamide]",40.5 nM
18,"CCC1(CC)CC(=O)N([C@@H]2C[C@@H](CCCCCCNC(C)=O)Oc3ccc(C(=O)N[C@H]4CC(C)(C)Oc5ccccc54)cc32)C(=N)N1 [Example 309, (2R,4R)-2-(6-acetamidohexyl)-4-(4,4-diethyl-2-imino-6-oxo-hexahydropyrimidin-l-yl)-N-[(4S)-2,2-dimethylchroman-4-yl]chromane-6-carboxamide]",3.2 nM
19,"CCC1(CC)CC(=O)N([C@@H]2C[C@@H](COCCOCCOCCN)Oc3ccc(C(=O)N[C@H]4CC(C)(C)Oc5ccccc54)cc32)C(=N)N1 [Example 310, (2S,4R)-2-[2-[2-(2-aminoethoxy)ethoxy]ethoxymethyl]-4-(4,4-diethyl-2-imino-6-oxo-hexahydropyrimidin-1-yl)-N-[(4S)-2,2-dimethylchroman-4-yl]chromane-6-carboxamide]",211 nM
20,"CCC1(CC)CC(=O)N([C@@H]2C[C@@H](CCCCCCNC(=O)OC(C)(C)C)Oc3ccc(C(=O)N[C@H]4CC(C)(C)Oc5ccccc54)cc32)C(=N)N1 [Example 311, tert-butyl N-[6-[(2R,4R)-4-(4,4-diethyl-2-imino-6-oxo-hexahydropyrimidin-1-yl)-6-[[(4S)-2,2-dimethylchroman-4-yl]carbamoyl]chroman-2-yl]hexyl]carbamate]",2.4 nM
21,"CCC1(CC)CC(=O)N([C@@H]2C[C@@H](COCCOCCOCCNC(C)=O)Oc3ccc(C(=O)N[C@H]4CC(C)(C)Oc5ccccc54)cc32)C(=N)N1 [Example 312, (2S,4R)-2-[2-[2-(2-acetamidoethoxy)ethoxy]ethoxymethyl] -4-(4,4-diethyl-2-imino-6-oxo-hexahydropyrimidin-1-yl)-N-[(4S)-2,2-dimethylchroman-4-yl]chromane-6-carboxamide]",53.9 nM
22,"CCC1(CC)CC(=O)N([C@H]2C[C@H](COCCOCCOCCNC(=O)OC(C)(C)C)Oc3ccc(C(=O)N[C@H]4CC(C)(C)Oc5ccccc54)cc32)C(=N)N1 [Example 313, tert-butyl N-[2-[2-[2-[[(2R,4S)-4-(4,4-diethyl-2-imino-6-oxo-hexahydropyrimidin-l-yl)-6-[[(4S)-2,2-dimethylchroman-4-yl]carbamoyl]chroman-2-yl]methoxy]ethoxy]ethoxy]ethyl]carbamate]",260 nM
23,"CCC1(CC)CC(=O)N([C@@H]2C[C@@H](COCCOCCOCCNC(=O)OC(C)(C)C)Oc3ccc(C(=O)N[C@H]4CC(C)(C)Oc5ccccc54)cc32)C(=N)N1 [Example 314, tert-butyl N-[2-[2-[2-[[(2S,4R)-4-(4,4-diethyl-2-imino-6-oxo-hexahydropyrimidin-l-yl)-6-[[(4S)-2,2-dimethylchroman-4-yl]carbamoyl]chroman-2-yl]methoxy]ethoxy]ethoxy]ethyl]carbamate]",7.3 nM
